# From PubChem BioAssay AID1963426 (Molecular Pharmacology Branch, DTP, NCI, 2024)
# System: 186277-243-T-J2-PDC complex spheroid growth, % test/control
# Experiment: Anticancer human tumor 186277-243-T-J2-PDC patient-derived colon adenocarcinoma cell line growth inhibition [Asc]
# Conditions: for IC50: curve of first compound; for viability, T/C: stronger effect = lower value
# How it was run: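 Tumor cells were grown as multicellular spheroids with stromal HUVEC and mesenchymal stem cells and treated singly or in combination. Concentrations fell in half-log steps from the clinical Cmax, or from 10 microM where none was known.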
# [1] = second compound 0.01 µM, first compound 0.0316 µM
# [2] = second compound 0.01 µM, first compound 0.1 µM
# [3] = second compound 0.01 µM, first compound 0.316 µM
# [4] = second compound 0.01 µM, first compound 1 µM
# [5] = second compound 0.01 µM, first compound 3.16 µM
# [6] = second compound 0.01 µM, first compound 10 µM
# [7] = second compound 0.0316 µM, first compound 0.0316 µM
# [8] = second compound 0.0316 µM, first compound 0.1 µM
# [9] = second compound 0.0316 µM, first compound 0.316 µM
# [10] = second compound 0.0316 µM, first compound 1 µM
# [11] = second compound 0.0316 µM, first compound 3.16 µM
# [12] = second compound 0.0316 µM, first compound 10 µM
# [13] = second compound 0.1 µM, first compound 0.0316 µM
# [14] = second compound 0.1 µM, first compound 0.1 µM
# [15] = second compound 0.1 µM, first compound 0.316 µM
# [16] = second compound 0.1 µM, first compound 1 µM
# [17] = second compound 0.1 µM, first compound 3.16 µM
# [18] = second compound 0.1 µM, first compound 10 µM
# [19] = second compound 0.316 µM, first compound 0.0316 µM
# [20] = second compound 0.316 µM, first compound 0.1 µM
# [21] = second compound 0.316 µM, first compound 0.316 µM
# [22] = second compound 0.316 µM, first compound 1 µM
# [23] = second compound 0.316 µM, first compound 3.16 µM
# [24] = second compound 0.316 µM, first compound 10 µM
# [25] = second compound 1 µM, first compound 0.0316 µM
# [26] = second compound 1 µM, first compound 0.1 µM
# [27] = second compound 1 µM, first compound 0.316 µM
# [28] = second compound 1 µM, first compound 1 µM
# [29] = second compound 1 µM, first compound 3.16 µM
# [30] = second compound 1 µM, first compound 10 µM
# [31] = second compound 0.01 µM, first compound 0.00949 µM
# [32] = second compound 0.01 µM, first compound 0.03 µM
# [33] = second compound 0.01 µM, first compound 0.0949 µM
# [34] = second compound 0.01 µM, first compound 0.3 µM
# [35] = second compound 0.01 µM, first compound 0.949 µM
# [36] = second compound 0.01 µM, first compound 3 µM
# [37] = second compound 0.0316 µM, first compound 0.00949 µM
# [38] = second compound 0.0316 µM, first compound 0.03 µM
# [39] = second compound 0.0316 µM, first compound 0.0949 µM
# [40] = second compound 0.0316 µM, first compound 0.3 µM
# [41] = second compound 0.0316 µM, first compound 0.949 µM
# [42] = second compound 0.0316 µM, first compound 3 µM
# [43] = second compound 0.1 µM, first compound 0.00949 µM
# [44] = second compound 0.1 µM, first compound 0.03 µM
# [45] = second compound 0.1 µM, first compound 0.0949 µM
# [46] = second compound 0.1 µM, first compound 0.3 µM
# [47] = second compound 0.1 µM, first compound 0.949 µM
# [48] = second compound 0.1 µM, first compound 3 µM
# [49] = second compound 0.316 µM, first compound 0.00949 µM
# [50] = second compound 0.316 µM, first compound 0.03 µM
# [51] = second compound 0.316 µM, first compound 0.0949 µM
# [52] = second compound 0.316 µM, first compound 0.3 µM
# [53] = second compound 0.316 µM, first compound 0.949 µM
# [54] = second compound 0.316 µM, first compound 3 µM
# [55] = second compound 1 µM, first compound 0.00949 µM
# [56] = second compound 1 µM, first compound 0.03 µM
# [57] = second compound 1 µM, first compound 0.0949 µM
# [58] = second compound 1 µM, first compound 0.3 µM
# [59] = second compound 1 µM, first compound 0.949 µM
# [60] = second compound 1 µM, first compound 3 µM
# 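Note: spheroids exposed to agents for 7 days.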
# 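Throughout, for viability, T/C: 100% = DMSO vehicle control wells.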
structure (smiles),measurement,setting,value
C#Cc1c(F)ccc2cc(O)cc(-c3ncc4c(N5CC6CCC(C5)N6)nc(OCC56CCCN5CC(F)C6)nc4c3F)c12 (stereo not given) + CNC(C)C(=O)NC1CN(S(=O)(=O)c2cccc(S(=O)(=O)N3CCC4CCC(C(=O)NC(c5ccccc5)c5ccccc5)N4C(=O)C(NC(=O)C(C)NC)C3)c2)CCC2CCC(C(=O)NC(c3ccccc3)c3ccccc3)N2C1=O,IC50,second compound 0.01 µM,571 nM
same,IC50,second compound 0.0316 µM,560 nM
same,IC50,second compound 0.1 µM,452 nM
same,IC50,second compound 0.316 µM,313 nM
same,IC50,second compound 1 µM,230 nM
same,"viability, T/C",[1],110%
same,"viability, T/C",[2],110%
same,"viability, T/C",[3],68.6%
same,"viability, T/C",[4],31.6%
same,"viability, T/C",[5],18.1%
same,"viability, T/C",[6],10.9%
same,"viability, T/C",[7],119%
same,"viability, T/C",[8],98.4%
same,"viability, T/C",[9],72.2%
same,"viability, T/C",[10],27.7%
same,"viability, T/C",[11],16.8%
same,"viability, T/C",[12],9.61%
same,"viability, T/C",[13],111%
same,"viability, T/C",[14],99.9%
same,"viability, T/C",[15],61%
same,"viability, T/C",[16],24.6%
same,"viability, T/C",[17],13.2%
same,"viability, T/C",[18],8.58%
same,"viability, T/C",[19],128%
same,"viability, T/C",[20],90%
same,"viability, T/C",[21],53.2%
same,"viability, T/C",[22],18.4%
same,"viability, T/C",[23],10.1%
same,"viability, T/C",[24],8.04%
same,"viability, T/C",[25],123%
same,"viability, T/C",[26],91.4%
same,"viability, T/C",[27],34%
same,"viability, T/C",[28],11.7%
same,"viability, T/C",[29],8.66%
same,"viability, T/C",[30],6.64%
C=C(F)C(=O)N1CCN(c2nc(OCC3CCCN3C)nc3c2CCN(c2cccc4cccc(Cl)c24)C3)CC1CC#N (stereo not given) + CNC(C)C(=O)NC1CN(S(=O)(=O)c2cccc(S(=O)(=O)N3CCC4CCC(C(=O)NC(c5ccccc5)c5ccccc5)N4C(=O)C(NC(=O)C(C)NC)C3)c2)CCC2CCC(C(=O)NC(c3ccccc3)c3ccccc3)N2C1=O,IC50,second compound 0.01 µM,8070 nM
same,IC50,second compound 0.0316 µM,7280 nM
same,IC50,second compound 0.1 µM,6660 nM
same,IC50,second compound 0.316 µM,6860 nM
same,IC50,second compound 1 µM,6260 nM
same,"viability, T/C",[1],133%
same,"viability, T/C",[2],122%
same,"viability, T/C",[3],117%
same,"viability, T/C",[4],112%
same,"viability, T/C",[5],121%
same,"viability, T/C",[6],33.9%
same,"viability, T/C",[7],108%
same,"viability, T/C",[8],109%
same,"viability, T/C",[9],99.2%
same,"viability, T/C",[10],102%
same,"viability, T/C",[11],117%
same,"viability, T/C",[12],28.2%
same,"viability, T/C",[13],108%
same,"viability, T/C",[14],109%
same,"viability, T/C",[15],120%
same,"viability, T/C",[16],119%
same,"viability, T/C",[17],131%
same,"viability, T/C",[18],13.1%
same,"viability, T/C",[19],127%
same,"viability, T/C",[20],120%
same,"viability, T/C",[21],104%
same,"viability, T/C",[22],118%
same,"viability, T/C",[23],132%
same,"viability, T/C",[24],15.8%
same,"viability, T/C",[25],113%
same,"viability, T/C",[26],102%
same,"viability, T/C",[27],117%
same,"viability, T/C",[28],108%
same,"viability, T/C",[29],118%
same,"viability, T/C",[30],7.88%
CCN1C(C(=O)NC23CCC(C(=O)O)(CC2)CC3)C(c2cccc(Cl)c2F)C2(C(=O)Nc3cc(Cl)ccc32)C12CCCCC2 (stereo not given) + CNC(C)C(=O)NC1CN(S(=O)(=O)c2cccc(S(=O)(=O)N3CCC4CCC(C(=O)NC(c5ccccc5)c5ccccc5)N4C(=O)C(NC(=O)C(C)NC)C3)c2)CCC2CCC(C(=O)NC(c3ccccc3)c3ccccc3)N2C1=O,IC50,second compound 0.01 µM,> 3000 nM
same,IC50,second compound 0.0316 µM,2690 nM
same,IC50,second compound 0.1 µM,2820 nM
same,IC50,second compound 0.316 µM,2690 nM
same,IC50,second compound 1 µM,2390 nM
same,"viability, T/C",[31],116%
same,"viability, T/C",[32],147%
same,"viability, T/C",[33],155%
same,"viability, T/C",[34],115%
same,"viability, T/C",[35],76.7%
same,"viability, T/C",[36],53.6%
same,"viability, T/C",[37],112%
same,"viability, T/C",[38],141%
same,"viability, T/C",[39],152%
same,"viability, T/C",[40],125%
same,"viability, T/C",[41],84.5%
same,"viability, T/C",[42],46.3%
same,"viability, T/C",[43],131%
same,"viability, T/C",[44],143%
same,"viability, T/C",[45],147%
same,"viability, T/C",[46],122%
same,"viability, T/C",[47],76.5%
same,"viability, T/C",[48],48.2%
same,"viability, T/C",[49],129%
same,"viability, T/C",[50],149%
same,"viability, T/C",[51],149%
same,"viability, T/C",[52],118%
same,"viability, T/C",[53],75%
same,"viability, T/C",[54],46.8%
same,"viability, T/C",[55],134%
same,"viability, T/C",[56],132%
same,"viability, T/C",[57],159%
same,"viability, T/C",[58],118%
same,"viability, T/C",[59],74.9%
same,"viability, T/C",[60],43.5%
Cc1nc(N2CCC3(CC2)COC(C)C3N)c(CO)nc1Sc1ccnc(N)c1Cl (stereo not given) + CNC(C)C(=O)NC1CN(S(=O)(=O)c2cccc(S(=O)(=O)N3CCC4CCC(C(=O)NC(c5ccccc5)c5ccccc5)N4C(=O)C(NC(=O)C(C)NC)C3)c2)CCC2CCC(C(=O)NC(c3ccccc3)c3ccccc3)N2C1=O,IC50,second compound 0.01 µM,> 3000 nM
same,IC50,second compound 0.0316 µM,> 3000 nM
same,IC50,second compound 0.1 µM,> 3000 nM
same,IC50,second compound 0.316 µM,> 3000 nM
same,IC50,second compound 1 µM,> 3000 nM
same,"viability, T/C",[31],106%
same,"viability, T/C",[32],102%
same,"viability, T/C",[33],112%
same,"viability, T/C",[34],93%
same,"viability, T/C",[35],97.8%
same,"viability, T/C",[36],106%
same,"viability, T/C",[37],98.8%
same,"viability, T/C",[38],111%
same,"viability, T/C",[39],107%
same,"viability, T/C",[40],91.6%
same,"viability, T/C",[41],104%
same,"viability, T/C",[42],104%
same,"viability, T/C",[43],107%
same,"viability, T/C",[44],101%
same,"viability, T/C",[45],103%
same,"viability, T/C",[46],97.7%
same,"viability, T/C",[47],102%
same,"viability, T/C",[48],119%
same,"viability, T/C",[49],96%
same,"viability, T/C",[50],104%
same,"viability, T/C",[51],106%
same,"viability, T/C",[52],103%
same,"viability, T/C",[53],101%
same,"viability, T/C",[54],100%
same,"viability, T/C",[55],112%
same,"viability, T/C",[56],110%
same,"viability, T/C",[57],99.6%
same,"viability, T/C",[58],102%
same,"viability, T/C",[59],105%
same,"viability, T/C",[60],101%
